We go through 16 compounds from patent publication US8013153B2, “Substituted pyrimidine kinase inhibitors” (Janssen Pharmaceutica, N.V., priority 2006, dated 2011).

As usually defined, the IC50 is the midpoint of a concentration-inhibition curve.

Assay [1] addresses T1, CDK1:Cyclin-B (Homo sapiens, UniProt P06493).
T1 construct: purchased New England Biolabs, Beverly, Mass; 6020; host or cells: insect cells
The experiment in a line: CDK1 Screening Assay. The format is biochemical.

Assay [2] relates to HeLa cervical adenocarcinoma. As to the kind of experiment: Inhibition of in vitro cell proliferation (HeLa).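 Also: cells exposed to compound for 24 h, then labelled 24 h with methyl 14C-thymidine, with uptake into DNA counted by scintillation against DMSO-only control wells.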 Type of assay: cell-based, human. As to conditions: Homo sapiens, 14C-thymidine incorporation. In general terms: Incorporation of labelled thymidine or its analogues reports DNA synthesis.
Assay [3] deals with T2, HER2 cytoplasmic domain (Homo sapiens, UniProt P04626).
T2 construct: polyhistidine (N)
As to the kind of experiment: HER2 Kinase Screening Assay. As to conditions: > means no observed 50% inhibition at the indicated test concentration; ~ means approximately 50% inhibition at that concentration. The format is biochemical.

Assay [4] addresses T3, RET cytoplasmic domain (Homo sapiens, UniProt P07949).
T3 construct: the RET cytoplasmic domain consisting of the last 492 amino acids of the intracellular domain; histidine tag (N); made in house; host or cells: Hi5 insect cells
T3 sequence (P07949 658-1114 limits assumed): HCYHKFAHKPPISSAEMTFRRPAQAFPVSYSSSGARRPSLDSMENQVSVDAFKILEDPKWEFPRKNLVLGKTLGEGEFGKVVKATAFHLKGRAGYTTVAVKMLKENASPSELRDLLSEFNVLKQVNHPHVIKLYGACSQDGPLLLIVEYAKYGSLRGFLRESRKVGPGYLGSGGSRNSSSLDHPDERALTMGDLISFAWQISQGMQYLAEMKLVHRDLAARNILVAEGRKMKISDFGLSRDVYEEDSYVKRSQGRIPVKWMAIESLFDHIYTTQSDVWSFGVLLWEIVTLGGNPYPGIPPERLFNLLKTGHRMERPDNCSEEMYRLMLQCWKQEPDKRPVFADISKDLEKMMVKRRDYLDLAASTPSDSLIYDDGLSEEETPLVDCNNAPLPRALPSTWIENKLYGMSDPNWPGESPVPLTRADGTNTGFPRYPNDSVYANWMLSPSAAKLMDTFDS
As to the kind of experiment: RET Kinase Screening Assay. Type of assay: biochemical.

The target of assay [5] is T4, murine Aurora-A (Mus musculus, UniProt P97477).
T4 construct: replaced with the full length protein encoding the murine Aurora-A; made in house; host or cells: sf9 insect cells
T4 sequence (P97477 1-395): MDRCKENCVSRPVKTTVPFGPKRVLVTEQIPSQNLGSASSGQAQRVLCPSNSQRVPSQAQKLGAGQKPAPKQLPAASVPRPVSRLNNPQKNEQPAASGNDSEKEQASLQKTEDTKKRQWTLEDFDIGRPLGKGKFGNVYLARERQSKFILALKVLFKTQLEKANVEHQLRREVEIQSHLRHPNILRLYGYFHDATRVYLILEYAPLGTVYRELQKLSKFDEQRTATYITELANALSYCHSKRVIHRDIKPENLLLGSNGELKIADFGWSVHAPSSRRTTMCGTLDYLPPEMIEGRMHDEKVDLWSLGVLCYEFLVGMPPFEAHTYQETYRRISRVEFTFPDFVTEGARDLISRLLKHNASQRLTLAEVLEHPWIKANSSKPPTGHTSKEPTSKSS
The experiment in a line: Aurora-A Screening Assay. Type of assay: biochemical.

Assay [6] relates to A375 malignant melanoma. The experiment in a line: Inhibition of in vitro cell proliferation (A375).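 Also: cells plated for 24 h, given compound for 24 h, then labelled with 14C-thymidine for another 24 h, with DMSO-only wells as control and counts read by scintillation.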 As to conditions: Homo sapiens, A-375, 14C-thymidine incorporation. The format is cell-based, human.
For assay [7], the system named is HCT-116 colon carcinoma. The experiment in a line: Inhibition of in vitro cell proliferation (HCT116).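 Also: cells exposed to compound for 24 h, then 14C-thymidine added for a further 24 h and its uptake into DNA counted by scintillation, DMSO-only wells as control.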 Type of assay: cell-based, human. As to conditions: Homo sapiens, HCT-116, 14C-thymidine incorporation.
Assay [8] deals with T5, rat VEGF-R2 kinase domain (Rattus norvegicus, UniProt O08775).
T5 construct: amino acids 786-1343 of the rat VEGF-R2 kinase domain; polyhistidine (N)
As to the kind of experiment: VEGF-R2 Screening Assay. Type of assay: biochemical.

Where [9] appears, read: > means no observed 50% inhibition at the indicated test concentration, ~ means approximately 50% inhibition at that concentration, read-out: IC50 VEGF-R2.

Structures are written as SMILES. Like-named read-outs stand apart in the source and are kept apart here.

T5 sequence (O08775 786-1343): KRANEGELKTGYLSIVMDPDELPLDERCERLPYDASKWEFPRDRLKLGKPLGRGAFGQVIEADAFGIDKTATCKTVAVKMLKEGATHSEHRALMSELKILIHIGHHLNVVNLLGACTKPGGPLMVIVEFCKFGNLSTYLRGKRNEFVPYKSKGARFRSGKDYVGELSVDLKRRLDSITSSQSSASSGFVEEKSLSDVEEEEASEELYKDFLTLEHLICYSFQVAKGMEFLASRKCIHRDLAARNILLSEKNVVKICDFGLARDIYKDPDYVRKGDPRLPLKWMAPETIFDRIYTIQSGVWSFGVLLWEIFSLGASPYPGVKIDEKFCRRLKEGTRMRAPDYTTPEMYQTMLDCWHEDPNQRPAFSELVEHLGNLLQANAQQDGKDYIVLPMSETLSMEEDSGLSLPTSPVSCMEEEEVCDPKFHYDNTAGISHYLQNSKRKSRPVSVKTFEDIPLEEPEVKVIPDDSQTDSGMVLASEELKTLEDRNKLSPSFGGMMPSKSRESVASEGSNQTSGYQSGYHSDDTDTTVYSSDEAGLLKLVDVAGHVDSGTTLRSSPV
T2 sequence (P04626 676-1255 limits assumed): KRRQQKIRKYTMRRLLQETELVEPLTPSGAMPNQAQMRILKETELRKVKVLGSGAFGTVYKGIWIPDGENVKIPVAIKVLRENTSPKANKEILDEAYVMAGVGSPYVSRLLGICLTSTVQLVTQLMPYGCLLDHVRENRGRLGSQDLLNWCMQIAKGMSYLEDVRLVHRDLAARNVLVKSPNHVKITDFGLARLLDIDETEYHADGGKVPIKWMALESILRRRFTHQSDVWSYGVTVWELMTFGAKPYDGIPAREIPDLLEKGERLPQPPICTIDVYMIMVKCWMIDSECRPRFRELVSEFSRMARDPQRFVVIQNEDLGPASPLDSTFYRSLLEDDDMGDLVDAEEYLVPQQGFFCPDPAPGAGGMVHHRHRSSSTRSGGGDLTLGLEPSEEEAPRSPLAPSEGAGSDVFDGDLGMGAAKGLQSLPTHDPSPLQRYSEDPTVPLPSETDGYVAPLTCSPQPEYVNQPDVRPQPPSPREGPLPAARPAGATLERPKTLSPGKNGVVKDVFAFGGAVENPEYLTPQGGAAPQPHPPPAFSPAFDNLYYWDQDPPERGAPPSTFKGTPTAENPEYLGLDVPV
T1 sequence (P06493 whole entry): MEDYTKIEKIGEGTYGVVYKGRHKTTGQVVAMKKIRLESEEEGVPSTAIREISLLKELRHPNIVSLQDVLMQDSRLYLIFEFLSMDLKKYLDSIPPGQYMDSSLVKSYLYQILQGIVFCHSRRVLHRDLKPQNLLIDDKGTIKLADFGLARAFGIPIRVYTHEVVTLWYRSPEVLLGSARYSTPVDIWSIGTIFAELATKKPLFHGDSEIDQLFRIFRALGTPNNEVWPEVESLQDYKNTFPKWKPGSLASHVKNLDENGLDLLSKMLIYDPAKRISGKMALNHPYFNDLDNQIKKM
T1 sequence (P14635 whole entry partner): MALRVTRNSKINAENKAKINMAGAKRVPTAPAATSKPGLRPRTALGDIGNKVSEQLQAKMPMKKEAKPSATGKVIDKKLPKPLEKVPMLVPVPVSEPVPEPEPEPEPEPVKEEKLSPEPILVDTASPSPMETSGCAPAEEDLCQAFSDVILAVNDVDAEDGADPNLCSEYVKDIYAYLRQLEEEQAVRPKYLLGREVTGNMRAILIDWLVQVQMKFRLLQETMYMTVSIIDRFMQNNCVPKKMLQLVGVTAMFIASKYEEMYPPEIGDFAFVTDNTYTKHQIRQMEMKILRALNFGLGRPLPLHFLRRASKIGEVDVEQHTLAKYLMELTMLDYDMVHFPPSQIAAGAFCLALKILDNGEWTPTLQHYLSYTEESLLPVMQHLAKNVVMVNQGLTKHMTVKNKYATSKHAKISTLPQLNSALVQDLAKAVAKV

On to `CCON=Cc1c(N)ncnc1Oc1ccc2[nH]c(C)cc2c1F` [Cpd 1, 4-amino-6-(4-fluoro-2-methyl-1H-indol-5-yloxy)-pyrimidine-5-carbaldehyde O-ethyl-oxime], for which the IC50 in assay [1] is over 100 µM; in assay [2], 0.032 µM; in assay [3] it was over 100 µM; in assay [4], over 100 µM; in assay [5], over 100 µM; in assay [6], 0.027 µM. Also, half-maximal inhibition in assay [7] (IC50) required 0.036 µM.
Take `Cc1cc2c(F)c(Oc3ncnc(N)c3C=NOCCN3CCOCC3)ccc2[nH]1` [Cpd 14, 4-amino-6-(4-fluoro-2-methyl-1H-indol-5-yloxy)-pyrimidine-5-carbaldehyde O-(2-morpholin-4-yl-ethyl)-oxime]: the IC50 in assay [1] is over 100 µM; in assay [3], about 10 µM; in assay [4] it was over 100 µM; in assay [5], over 100 µM.
For the compound `Cc1cc2c(F)c(Oc3ncnc(N)c3C=NOCCN(C)C)ccc2[nH]1` [Cpd 15, 4-amino-6-(4-fluoro-2-methyl-1H-indol-5-yloxy)-pyrimidine-5-carbaldehyde O-(2-dimethylamino-ethyl)-oxime], the IC50 in assay [1] is over 100 µM; in assay [3], 36.1 µM; in assay [4], over 100 µM; in assay [5], over 100 µM.
Consider `C#CCON=Cc1c(N)ncnc1Oc1ccc2[nH]c(C)cc2c1F` [Cpd 30, 4-amino-6-(4-fluoro-2-methyl-1H-indol-5-yloxy)-pyrimidine-5-carbaldehyde O-prop-2-ynyl-oxime], for which the 50% inhibitory concentration (IC50) in assay [1] is over 100 µM; in assay [3] it was over 10 µM; in assay [4], about 10 µM; in assay [5], over 100 µM.
Regarding `CON=Cc1c(N)ncnc1Oc1ccc(NC(=O)Nc2cccnc2)c(Cl)c1` [Cpd 87, 1-{4-[6-amino-5-(methoxyimino-methyl)-pyrimidin-4-yloxy]-2-chloro-phenyl}-3-pyridin-3-yl-urea], the IC50 was 0.01 µM in assay [8] (setting [9]); over 100 µM in assay [1]; 4.63 µM in assay [2]; over 1 µM in assay [3]; over 100 µM in assay [5]; 3.41 µM in assay [6]. In assay [7], this compound displayed an IC50 of 4.67 µM.
Regarding `CON=Cc1c(N)ncnc1Oc1ccc(NC(=O)Nc2ccncc2)c(Cl)c1` [Cpd 88, 1-{4-[6-amino-5-(methoxyimino-methyl)-pyrimidin-4-yloxy]-2-chloro-phenyl}-3-pyridin-4-yl-urea], the IC50 in assay [8] (IC50 VEGF-R2) was 0.011 µM; in assay [1], over 100 µM; in assay [2], 7.39 µM; in assay [3], over 10 µM; in assay [5], over 10 µM; in assay [6] it was 4.34 µM. Further, in assay [7], half-maximal inhibition (IC50) required 4.69 µM.
Consider `CON=Cc1c(N)ncnc1Oc1ccc(NC(=O)Nc2nc(C)cs2)c(Cl)c1` [Cpd 89, 1-{4-[6-amino-5-(methoxyimino-methyl)-pyrimidin-4-yloxy]-2-chloro-phenyl}-3-(4-methyl-thiazol-2-yl)-urea], for which the IC50 in assay [8] (setting [9]) is 0.0039 µM; in assay [1] it was over 100 µM; in assay [2], over 10 µM; in assay [3] it was over 1 µM; in assay [5] it was over 100 µM; in assay [6] it was 2.19 µM. Further, the IC50 in assay [7] is over 10 µM.
In the case of `CON=Cc1c(N)ncnc1Oc1ccc(NC(=O)Nc2ncc(C)s2)c(Cl)c1` [Cpd 90, 1-{4-[6-amino-5-(methoxyimino-methyl)-pyrimidin-4-yloxy]-2-chloro-phenyl}-3-(5-methyl-thiazol-2-yl)-urea], the IC50 in assay [8] (setting [9]) is 0.037 µM; in assay [1] it was over 100 µM; in assay [2], over 100 µM; in assay [3], over 1 µM; in assay [5], over 10 µM; in assay [6], over 10 µM. The same compound showed an IC50 in assay [7] of over 10 µM.
Take `CON=Cc1c(N)ncnc1Oc1ccc(NC(=O)Nc2nccs2)c(Cl)c1` [Cpd 91, 1-{4-[6-amino-5-(methoxyimino-methyl)-pyrimidin-4-yloxy]-2-chloro-phenyl}-3-thiazol-2-yl-urea]: the IC50 in assay [8] (setting [9]) was 0.0034 µM; in assay [1], over 100 µM; in assay [2], 3.24 µM; in assay [3] it was over 1 µM; in assay [5], over 10 µM; in assay [6] it was 0.929 µM. In assay [7], this compound registered an IC50 of 3.04 µM.
On to `CON=Cc1c(N)ncnc1Oc1ccc(NC(=O)Nc2nc(C)c(C)s2)c(Cl)c1` [Cpd 92, 1-{4-[6-amino-5-(methoxyimino-methyl)-pyrimidin-4-yloxy]-2-chloro-phenyl}-3-(4,5-dimethyl-thiazol-2-yl)-urea], for which the IC50 in assay [8] (setting [9]) is 0.002 µM; in assay [1] it was over 100 µM; in assay [2], 23.4 µM; in assay [3], over 1 µM; in assay [5] it was over 100 µM; in assay [6], 6.92 µM. The compound further had an IC50 in assay [7] of 16.9 µM.
`CON=Cc1c(N)ncnc1Oc1ccc(NC(=O)Nc2cc(C)on2)c(Cl)c1` [Cpd 93, 1-{4-[6-amino-5-(methoxyimino-methyl)-pyrimidin-4-yloxy]-2-chloro-phenyl}-3-(5-methyl-isoxazol-3-yl)-urea]: the IC50 is 0.002 µM in assay [8] (setting [9]); over 100 µM in assay [1]; 10 µM in assay [2]; over 10 µM in assay [3]; over 100 µM in assay [5]; 2.12 µM in assay [6]. In assay [7], this compound gave an IC50 of 3.12 µM.
`CON=Cc1c(N)ncnc1Oc1ccc(NC(C)=O)c(Cl)c1` [Cpd 94, N-{4-[6-amino-5-(methoxyimino-methyl)-pyrimidin-4-yloxy]-2-chloro-phenyl}-acetamide]: the IC50 is 2.21 µM in assay [8] (setting [9]); over 100 µM in assay [1]; 4.02 µM in assay [2]; over 100 µM in assay [3]; over 100 µM in assay [5]; 2.69 µM in assay [6]. In assay [7], this compound came in with an IC50 of 3.62 µM.
With `CON=Cc1c(N)ncnc1Oc1ccc(NC(=O)OC)c(Cl)c1` [Cpd 95, {4-[6-amino-5-(methoxyimino-methyl)-pyrimidin-4-yloxy]-2-chloro-phenyl}-carbamic acid methyl ester], the IC50 in assay [8] (setting [9]) was 0.152 µM; in assay [1], over 100 µM; in assay [2], 4.95 µM; in assay [3], over 10 µM; in assay [5] it was over 100 µM; in assay [6], 3.5 µM. The compound further registered an IC50 in assay [7] of 3.77 µM.
Regarding `CON=Cc1c(N)ncnc1Oc1ccc(CC(=O)Nc2ccccc2)cc1` [Cpd 97, 2-{4-[6-amino-5-(methoxyimino-methyl)-pyrimidin-4-yloxy]-phenyl}-N-phenyl-acetamide], the IC50 in assay [8] (setting [9]) is 0.0407 µM; in assay [1], over 100 µM; in assay [2], over 10 µM; in assay [3], 1.31 µM; in assay [5] it was over 100 µM; in assay [6], over 10 µM. This compound also returned an IC50 in assay [7] of over 10 µM.
In the case of `CON=Cc1c(N)ncnc1Oc1ccc(CC(=O)Nc2ccc(C)cc2)cc1` [Cpd 99, 2-{4-[6-amino-5-(methoxyimino-methyl)-pyrimidin-4-yloxy]-phenyl}-N-p-tolyl-acetamide], the IC50 in assay [8] (setting [9]) was 0.008 µM; in assay [1] it was over 100 µM; in assay [2] it was over 100 µM; in assay [3], 0.217 µM; in assay [5] it was over 100 µM; in assay [6], over 100 µM. For the same compound, in assay [7], the IC50 is over 100 µM.
Turning to `CON=Cc1c(N)ncnc1Oc1ccc(OCc2ccccc2)cc1` [Cpd 110, 4-amino-6-[4-(benzyloxy)phenoxy]-5-pyrimidinecarboxaldehyde O-methyloxime], the IC50 in assay [8] (setting [9]) is about 1 µM; in assay [1] it was over 100 µM; in assay [2] it was over 100 µM; in assay [3] it was 0.555 µM; in assay [5], over 100 µM; in assay [6] it was over 100 µM. For the same compound, the IC50 in assay [7] is over 100 µM.
